Values of other authors in publication PMC12371493 (ACS Bio & Med Chem Au, 2025).

Test system: MC38-hPD-L1 tumor
Settings: dosed SubQ; ref not given

SMILES: CO[C@H]1[C@H]2OP(=O)(O)OC[C@@]34C[C@@H]3[C@@H](n3cnc5c(N)ncnc53)[C@H](O)[C@@H]4O[P@](=O)(S)OC[C@H]1O[C@H]2n1cnc2c(=O)[nH]c(N)nc21 [ALG-031048]
- reduction of MC38-hPD-L1 tumor: could reduce MC38-hPD-L1tumor, albeit modestly
